Measurements from article PMC8761715 (Clinical Pharmacokinetics, 2021).

Legend:
[1] = cited from earlier work
[2] = cited from earlier work; remark: listed apart in the source
[3] = Pharmacokinetics of microdosed edoxaban
[4] = cited from earlier work; remark: listed apart in the source
[5] = system: CYP3A; conditions: cited from earlier work
[6] = system: P-gp/BCRP; conditions: cited from earlier work
[7] = system: CYP2C19; conditions: cited from earlier work
[8] = system: CYP2C9; conditions: cited from earlier work
[9] = system: CYP2D6; conditions: multiple doses of isavuconazole; cited from earlier work
[10] = Pharmacokinetics of microdosed rivaroxaban; conditions: rivaroxaban 25 µg microdose with the azole named as label, vs baseline
[11] = Plasma pharmacokinetics of the azole antifungals; format: in vivo, human; conditions: after first 200 mg dose, fasting; LLOQ 0.1 µg/mL
[12] = system: CYP2J2; conditions: cited from earlier work
[13] = posaconazole as tablets; general statement, ref not given; cited from earlier work
[14] = rivaroxaban with more than one combined P-gp and CYP3A4 inhibitor; atrial fibrillation patients; 95% CI 1.01–1.85, p = 0.04; cited from earlier work

## COc1ccc(-n2nc(C(N)=O)c3c2C(=O)N(c2ccc(N4CCCCC4=O)cc2)CC3)cc1 [Apixaban, apixaban]
[1]
  Contribution of CYP enzymes other than CYP3A to overall elimination of apixaban: 6%

## CN1CCc2nc(C(=O)N[C@@H]3C[C@@H](C(=O)N(C)C)CC[C@@H]3NC(=O)C(=O)Nc3ccc(Cl)cn3)sc2C1 [Edoxaban, edoxaban]
[2]; 18 study participants
  Edoxaban individual CL/F, range of previous study: 490 to 1460 mL/min
[2]
  Edoxaban bioavailability: approximately 62%
  Edoxaban dose eliminated unchanged in the urine: approximately 24%
  Edoxaban dose excreted unchanged in the faeces: About 50%
  Part of edoxaban elimination by CYP-mediated metabolism: < 4%
[3]; compared with 18 study participants of ref 24
  Average CL/F of edoxaban higher than published values: 30%
[3]; this study, 50 µg microdose
  Edoxaban individual CL/F, observed range: 600 to 2200 mL/min

## OC(Cn1cncn1)(Cn1cncn1)c1ccc(F)cc1F [Fluconazole, fluconazole]
[4]; therapeutic dose of rivaroxaban, 4 days pre-exposure
  Rivaroxaban CL/F reduction with fluconazole, published: 29%
[5]
  CYP3A inhibitor classification: Mainly moderate
[6]
  P-gp/BCRP inhibitor classification: not P-gp/BCRP, inhibitor
[7]
  CYP2C19 inhibitor classification: strong
[8]
  CYP2C9 inhibitor classification: moderate

## C[C@@H](c1nc(-c2ccc(C#N)cc2)cs1)[C@](O)(Cn1cncn1)c1cc(F)ccc1F [Isavuconazole, isavuconazole]
[9]
  Increase in dextromethorphan exposure: < 20%
[5]
  CYP3A inhibitor classification: Weak to moderate
[6]
  P-gp/BCRP inhibitor classification: P-gp inhibitor, but not BCRP inhibitor
[10]
  Effect of azole on rivaroxaban pharmacokinetics (in words): did not alter any pharmacokinetic parameters

## CCC(C)n1ncn(-c2ccc(N3CCN(c4ccc(OCC5COC(Cn6cncn6)(c6ccc(Cl)cc6Cl)O5)cc4)CC3)cc2)c1=O (stereo not drawn) [Itraconazole, itraconazole]
[11]
  Azole plasma concentrations (in words): below the LLOQ
[5]
  CYP3A inhibitor classification: Strong
[6]
  P-gp/BCRP inhibitor classification: P-gp/BCRP inhibitor

## CC(=O)N1CCN(c2ccc(OCC3COC(Cn4ccnc4)(c4ccc(Cl)cc4Cl)O3)cc2)CC1 (stereo not drawn) [Ketoconazole, ketoconazole]
[1]; similar perpetrator dose, longer pretreatment
  Apixaban Cmax increase with ketoconazole, published: 1.6 fold
[2]
  Edoxaban AUC increase with ketoconazole, published: 1.9 fold
[4]
  Rivaroxaban AUC increase with ketoconazole, published: 2.6 fold
[5]
  CYP3A inhibitor classification: Strong
[12]
  CYP2J2 inhibitor classification: potent inhibitor

## CC[C@@H]([C@H](C)O)n1ncn(-c2ccc(N3CCN(c4ccc(OC[C@@H]5CO[C@@](Cn6cncn6)(c6ccc(F)cc6F)C5)cc4)CC3)cc2)c1=O [Posaconazole, posaconazole]
[13]
  Time at which maximum plasma concentrations are reached (tmax): 4 to 5 h
[5]
  CYP3A inhibitor classification: Strong
[6]
  P-gp/BCRP inhibitor classification: in vitro P-gp/BCRP inhibitor

## O=C(NC[C@H]1CN(c2ccc(N3CCOCC3=O)cc2)C(=O)O1)c1ccc(Cl)s1 [Rivaroxaban, rivaroxaban]
[4]
  Rivaroxaban P-gp/BCRP-dependent active renal secretion: approximately 30 % of a dose
  Rivaroxaban bioavailability: 80–100%
  Rivaroxaban partial clearance by non-enzymatic hydrolysis: approximately 14%
  Rivaroxaban partial clearance mediated by CYP2J2: approximately 14%
  Rivaroxaban partial clearance mediated by CYP3A: approximately 18 % of a dose
[14]
  Bleeding risk ratio (RR) compared with warfarin: 1.37

## C[C@@H](c1ncncc1F)[C@](O)(Cn1cncn1)c1ccc(F)cc1F [Voriconazole, voriconazole]
[5]
  CYP3A inhibitor classification: Strong
[6]
  P-gp/BCRP inhibitor classification: not P-gp/BCRP, inhibitor
